According to ChEMBL document CHEMBL6078706, “Deciphering the Comprehensive Structure-Activity Relationship of Sunshinamide for Breast Cancer Therapy through Dual Modulation of Apoptotic and Ferroptotic Pathways via TrxR1 and Gpx4 Inhibition” (J Med Chem, 2024):
Activity calls are given as the source filed them. No cut-off for these calls is given here.

Legend:
[1] = test system: HEK293; assay: Antiproliferative activity against human HEK293 cells assessed as cell viability upto 50 nM incubated for 48 hrs by MTT assay; assay type: toxicity, cell-based; settings: hek293, 48 h, 0.05 µM
[2] = target: T1, Thioredoxin reductase 1, cytoplasmic (Homo sapiens) (UniProt Q16881); assay: Inhibition of TRXR1 in human MDA-MB-468 cells incubated for 24 hrs by; assay type: cell-based
T1 sequence (whole entry): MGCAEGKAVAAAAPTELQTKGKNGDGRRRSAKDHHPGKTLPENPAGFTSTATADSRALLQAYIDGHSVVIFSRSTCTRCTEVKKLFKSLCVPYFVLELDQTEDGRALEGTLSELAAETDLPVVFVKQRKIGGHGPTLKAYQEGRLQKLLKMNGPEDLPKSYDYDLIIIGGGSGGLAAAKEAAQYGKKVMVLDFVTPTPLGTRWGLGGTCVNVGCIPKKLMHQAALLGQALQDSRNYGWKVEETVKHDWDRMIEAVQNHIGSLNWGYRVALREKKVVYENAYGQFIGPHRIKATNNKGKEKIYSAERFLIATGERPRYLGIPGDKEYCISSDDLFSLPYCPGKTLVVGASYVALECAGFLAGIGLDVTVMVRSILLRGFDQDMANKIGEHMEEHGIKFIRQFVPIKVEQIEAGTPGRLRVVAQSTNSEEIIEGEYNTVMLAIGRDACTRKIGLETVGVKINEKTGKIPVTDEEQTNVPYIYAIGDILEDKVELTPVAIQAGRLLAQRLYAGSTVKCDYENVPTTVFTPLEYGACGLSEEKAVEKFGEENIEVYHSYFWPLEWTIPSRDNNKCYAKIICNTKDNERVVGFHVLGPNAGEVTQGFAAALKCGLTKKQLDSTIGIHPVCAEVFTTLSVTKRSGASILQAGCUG

[3] = target: T1, Thioredoxin reductase 1, cytoplasmic (Homo sapiens); assay: Inhibition of recombinant TRXR1 (unknown origin) assessed as reduction in DTNB incubated for 2 hrs in presence of NADPH by microplate reader analysis
[4] = test system: MDA-MB-468; assay: Effect on TRXR1 expression in human MDA-MB-468 cells at 25 nM incubated for 24 hrs by Western blot analysis; assay type: functional, cell-based
[5] = test system: MDA-MB-468; assay: Induction of ROS production in human MDA-MB-468 cells expressing TrxR1 assessed as reduction in ROS level at 25 nM incubated for 6 hrs by DCFH-DA staining based flow cytometry analysis; assay type: functional, cell-based
[6] = test system: MDA-MB-468; assay: Induction of endoplasmic reticulum (ER) stress-mediated apoptosis in human MDA-MB-468 cells assessed as increase in p-PERK level at 25 nM measured after 12 hrs by Western blot analysis; assay type: functional, cell-based
[7] = test system: MDA-MB-468; assay: Induction of endoplasmic reticulum (ER) stress-mediated apoptosis in human MDA-MB-468 cells assessed as increase in ATF4 expression at 25 nM measured after 12 hrs by Western blot analysis; assay type: functional, cell-based
[8] = test system: MDA-MB-468; assay: Induction of endoplasmic reticulum (ER) stress-mediated apoptosis in human MDA-MB-468 cells assessed as increase in CHOP expression at 25 nM measured after 12 hrs by Western blot analysis; assay type: functional, cell-based
[9] = test system: MDA-MB-468; assay: Induction of endoplasmic reticulum (ER) stress-mediated apoptosis in human MDA-MB-468 cells assessed as reduction in ATF4 expression at 25 nM measured for 12 hrs in presence of 4-PBA by Western blot analysis; assay type: functional, cell-based
[10] = test system: MDA-MB-468; assay: Induction of apoptosis in human MDA-MB-468 cells assessed as increase in caspase 3/7 activation at 25 nM measured at 12 hrs in presence of 4-PBA by Western blot analysis; assay type: functional, cell-based
[11] = test system: MDA-MB-468; assay: Induction of apoptosis in human MDA-MB-468 cells transfected with ATF4 SiRNA assessed as increase in caspase 3/7 activation at 25 nM measured at 12 hrs by Western blot analysis; assay type: functional, cell-based
[12] = test system: MDA-MB-468; assay: Induction of apoptosis in CHOP knockdown human MDA-MB-468 cells assessed as increase in caspase 3/7 activation at 25 nM measured at 12 hrs by Western blot analysis; assay type: functional, cell-based
[13] = test system: MDA-MB-468; assay: Induction of ferroptosis in human MDA-MB-468 cells assessed as increase in cell viability at 25 nM incubated for 48 hrs in presence of ferrostatin-1; assay type: functional, cell-based
[14] = test system: MDA-MB-468; assay: Induction of ferroptosis in human MDA-MB-468 cells assessed as decrease in lipid peroxidation level at 25 nM incubated for 6 hrs in presence of ferrostatin-1 by C11-BODIPY staining based flow cytometry analysis; assay type: functional, cell-based
[15] = test system: MDA-MB-468; assay: Induction of ferroptosis in human MDA-MB-468 cells assessed as lipid peroxidation level by measuring fluorescence intensity at 25 nM incubated for 6 hrs in presence of ferrostatin-1 by C11-BODIPY staining based microscopic analysis; assay type: functional, cell-based
[16] = test system: MDA-MB-468; assay: Induction of ferroptosis in human MDA-MB-468 cells assessed as increase in 4-HNE level at 25 nM; assay type: functional, cell-based
[17] = test system: MDA-MB-468; assay: Induction of ferroptosis in human MDA-MB-468 cells assessed as decrease in MDA level at 25 nM in presence of ferrostatin-1; assay type: functional, cell-based
[18] = test system: MDA-MB-468; assay: Induction of ferroptosis in human MDA-MB-468 cells assessed as decrease in 4-HNE level at 25 nM in presence of ferrostatin-1; assay type: functional, cell-based
[19] = target: T2, Cystine/glutamate transporter (Homo sapiens) (UniProt Q9UPY5); assay: Inhibition of Xc- in human MDA-MB-468 cells assessed as decrease in glutamate release at 25 nM incubated for 12 hrs; assay type: cell-based
T2 sequence (whole entry): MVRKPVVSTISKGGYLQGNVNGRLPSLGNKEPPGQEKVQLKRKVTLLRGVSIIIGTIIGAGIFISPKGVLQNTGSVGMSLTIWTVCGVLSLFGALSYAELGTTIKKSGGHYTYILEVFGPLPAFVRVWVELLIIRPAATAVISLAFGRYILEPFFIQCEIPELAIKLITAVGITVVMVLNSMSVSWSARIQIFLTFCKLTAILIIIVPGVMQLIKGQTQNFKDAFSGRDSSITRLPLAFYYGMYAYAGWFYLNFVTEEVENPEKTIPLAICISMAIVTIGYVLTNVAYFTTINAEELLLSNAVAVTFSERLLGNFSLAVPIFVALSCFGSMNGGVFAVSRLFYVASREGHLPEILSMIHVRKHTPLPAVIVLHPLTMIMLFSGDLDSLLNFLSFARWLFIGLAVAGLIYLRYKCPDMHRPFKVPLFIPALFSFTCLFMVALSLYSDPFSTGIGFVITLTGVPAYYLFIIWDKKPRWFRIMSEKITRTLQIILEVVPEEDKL

[20] = test system: MDA-MB-468; assay: Induction of ferroptosis in human MDA-MB-468 cells assessed as reduction in intracellular GSH level at 25 nM incubated for 12 hrs; assay type: functional, cell-based
[21] = target: T3, Phospholipid hydroperoxide glutathione peroxidase GPX4 (Homo sapiens) (UniProt P36969); assay: Inhibition of GPX4 in human MDA-MB-468 cells incubated for 12 hrs in presence of NADPH; assay type: cell-based; settings: dose 25.0 nM
T3 sequence (whole entry): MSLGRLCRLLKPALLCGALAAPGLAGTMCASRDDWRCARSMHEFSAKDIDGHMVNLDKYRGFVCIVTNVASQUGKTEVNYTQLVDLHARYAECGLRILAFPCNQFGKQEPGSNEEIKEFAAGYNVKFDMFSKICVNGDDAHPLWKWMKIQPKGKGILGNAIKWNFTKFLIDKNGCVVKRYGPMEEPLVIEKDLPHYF

SMILES | Activity [1] | inhibition [2] | inhibition [3] | Activity [4] | Activity [5] | Activity [6] | Activity [7] | Activity [8] | Activity [9] | Activity [10] | Activity [11] | Activity [12] | Activity [13] | Activity [14] | Activity [15] | Activity [16] | Activity [17] | Activity [18] | inhibition [19] | Activity [20] | further results
CCCCCCC[C@@H](O)CC(=O)N[C@H](Cc1ccccc1)C(=O)N[C@H]1CSSC[C@@H](C(=O)O)NC1=O | Non-toxic | Active | inactive | inactive | Active | inactive | inactive | inactive | inactive | Active | Active | Active | inactive | Active | Active | inactive | Active | Active | inactive | inactive | inhibition [21]: Dose-dependent-effect
CCCCCCC[C@@H]1CC(=O)N[C@H](Cc2ccccc2)C(=O)N[C@@H](CSC)C(=O)N[C@@H](CSC)C(=O)O1 | Non-toxic | Active | inactive | inactive | Active | inactive | inactive | inactive | inactive | Active | Active | Active | inactive | Active | Active | inactive | Active | Active | inactive | inactive | inhibition [21]: Dose-dependent-effect
CCCCCCC[C@@H]1CC(=O)N[C@H](Cc2ccccc2)C(=O)N[C@H]2CSSC[C@H](NC2=O)C(=O)O1 | Non-toxic | Active | Active | inactive | Active | Active | Active | Active | Active | Active | Active | Active | inactive | Active | Active | inactive | Active | Active | inactive | inactive | inhibition [21]: Dose-dependent-effect
